According to the CheMixHub viscosity set:
“And” between values parts separate entries of the source, which are not always exact repeats. Equal values may be shown once.

Tests used:
[1] = xn = mol fraction of the nth substance listed; settings: 303.15 K, 101 kPa

CC[n+]1ccn(C)c1.N#C[N-]C#N
viscosity
Settings | 298.15 K | 303.15 K | 308.15 K | 313.15 K | 318.15 K | 323.15 K
100 kPa | 14.78 mPa·s and 13.09 mPa·s | 12.88 mPa·s and 11.39 mPa·s | 11.3 mPa·s and 10 mPa·s | 9.759 mPa·s and 8.86 mPa·s | 8.929 mPa·s and 7.92 mPa·s | 8.01 mPa·s and 7.13 mPa·s
101 kPa | 14.9 mPa·s and 17.4 mPa·s | – | – | 10.07 mPa·s | – | –

CCN(CC)CC
Settings | viscosity
293.15 K, 100 kPa | 0.3608 mPa·s
293.15 K, 101 kPa | 0.369 mPa·s
297.85 K, 101 kPa | 0.352 mPa·s
298 K, 101.33 kPa | 0.35 mPa·s
298.15 K, 100 kPa | 0.353 mPa·s and 0.3534 mPa·s (2×)
298.15 K, 101 kPa | 0.344 mPa·s
302.85 K, 101 kPa | 0.335 mPa·s
303.15 K, 100 kPa | 0.339 mPa·s and 0.3387 mPa·s (2×)
303.15 K, 101 kPa | 0.333 mPa·s
303.15 K, 101.33 kPa | 0.3592 mPa·s and 0.3592 mPa·s
307.85 K, 101 kPa | 0.319 mPa·s
308.15 K, 100 kPa | 0.322 mPa·s and 0.3221 mPa·s (2×)
312.95 K, 101 kPa | 0.304 mPa·s
313.15 K, 101 kPa | 0.302 mPa·s
313.15 K, 101.33 kPa | 0.3249 mPa·s and 0.3249 mPa·s
317.75 K, 101 kPa | 0.291 mPa·s
322.75 K, 101 kPa | 0.278 mPa·s
323.15 K, 101 kPa | 0.275 mPa·s

CCCCCCCCCCCCCC[P+](CCCCCC)(CCCCCC)CCCCCC.O=S(=O)([N-]S(=O)(=O)C(F)(F)F)C(F)(F)F
Settings | viscosity [mPa·s]
313.15 K, 101 kPa | 150

CC1CCCCC1O (stereo unspecified)
viscosity [mPa·s]
Settings | 293.15 K | 298.15 K | 303.15 K | 308.15 K | 313.15 K
100 kPa | 38.6 | 26.99 | 18.91 | 13.95 | 10.53
101 kPa | 21.7 | – | – | – | –

CCC(C)(O)CC
Settings | viscosity
298.15 K, 101.33 kPa | 3.918 mPa·s and 3.918 mPa·s

CCCCCCCC(=O)[O-].CC[NH+](C(C)C)C(C)C
Settings | viscosity [mPa·s]
298.15 K, 101.3 kPa | 13.52

CCn1cc[n+](C)c1.O=C([O-])[C@@H]1CCCN1
101 kPa
Settings | viscosity [mPa·s]
298.15 K | 1195
303.15 K | 771.5

CC(C)[O-].CC(C)[O-].CC(C)[O-].CC(C)[O-].[Ti+4]
101.3 kPa
Settings | viscosity [mPa·s]
293.15 K | 3.144
303.15 K | 1.845
313.15 K | 1.279
323.15 K | 1.003

ClC(Cl)(Cl)Cl
Settings | viscosity
293.15 K, 101 kPa | 0.95 mPa·s and 0.9826 mPa·s
298 K, 101 kPa | 0.9128 mPa·s
298 K, 101.3 kPa | 0.892 mPa·s
298 K, 101.33 kPa | 0.899 mPa·s
298.15 K, 100 kPa | 0.9062 mPa·s and 0.897 mPa·s
298.15 K, 101.32 kPa | 0.902 mPa·s and 0.902 mPa·s
298.16 K, 101 kPa | 0.907 mPa·s
301.85 K, 101 kPa | 0.9088 mPa·s
303 K, 101.33 kPa | 0.8371 mPa·s and 0.838 mPa·s
303.15 K, 100 kPa | 0.845 mPa·s and 0.838 mPa·s
303.15 K, 101.3 kPa | 0.8427 mPa·s and 0.8427 mPa·s
303.15 K, 101.33 kPa | 0.845 mPa·s and 0.845 mPa·s and 0.768 mPa·s
308 K, 101 kPa | 0.7888 mPa·s
308.15 K, 100 kPa | 0.7897 mPa·s and 0.784 mPa·s
308.15 K, 101.33 kPa | 0.717 mPa·s
312.15 K, 101 kPa | 0.7815 mPa·s
313 K, 101.33 kPa | 0.7436 mPa·s and 0.735 mPa·s
313.15 K, 100 kPa | 0.7394 mPa·s and 0.734 mPa·s
313.15 K, 101.33 kPa | 0.739 mPa·s and 0.7392 mPa·s
318 K, 101 kPa | 0.6788 mPa·s
318 K, 101.3 kPa | 0.7444 mPa·s and 0.7449 mPa·s
318 K, 101.33 kPa | 0.7449 mPa·s
318.15 K, 100 kPa | 0.689 mPa·s
323 K, 101.33 kPa | 0.6566 mPa·s and 0.653 mPa·s
323.15 K, 101 kPa | 0.712 mPa·s
323.15 K, 101.33 kPa | 0.6543 mPa·s

CCOC(=O)c1ccccc1O
Settings | viscosity [mPa·s]
303.15 K, 101 kPa | 3.117

CCCC(C)=O
Settings | viscosity
293.15 K, 101 kPa | 0.506 mPa·s
298.15 K, 101 kPa | 0.463 mPa·s and 0.4591 mPa·s and 0.4673 mPa·s
303.15 K, 100 kPa | 0.435 mPa·s
303.15 K, 101 kPa | 0.437 mPa·s and 0.435 mPa·s
303.15 K, 101.32 kPa | 0.466 mPa·s
303.15 K, 101.33 kPa | 0.456 mPa·s
308.15 K, 100 kPa | 0.422 mPa·s
308.15 K, 101 kPa | 0.413 mPa·s and 0.422 mPa·s and 0.4197 mPa·s
313.15 K, 100 kPa | 0.409 mPa·s
313.15 K, 101 kPa | 0.405 mPa·s
318.15 K, 101 kPa | 0.3782 mPa·s
323.15 K, 101 kPa | 0.3584 mPa·s

CCCOC(C)=O
viscosity
Settings | 293.15 K | 298.15 K | 303.15 K | 308.15 K | 313.15 K | 318.15 K
101 kPa | 0.591 mPa·s | 0.56 mPa·s and 0.553 mPa·s and 0.562 mPa·s | 0.525 mPa·s | 0.487 mPa·s and 0.488 mPa·s | 0.462 mPa·s and 0.451 mPa·s | 0.439 mPa·s
101.33 kPa | – | 0.563 mPa·s | 0.524 mPa·s and 0.512 mPa·s | 0.489 mPa·s and 0.483 mPa·s | – | –

ClC(Cl)(Cl)Cl + C=C(C)C(=O)OC
[1]
Settings | viscosity [mPa·s]
x2 = 0.0997 | 0.7954
x2 = 0.1978 | 0.753
x2 = 0.4056 | 0.6767
x2 = 0.5067 | 0.641
x2 = 0.5941 | 0.6167
x2 = 0.7976 | 0.5599
x2 = 0.8944 | 0.536
